Experimental data: patent US20250018046A1, “COMPOUNDS FOR TARGETING DEGRADATION OF IRAK4 PROTEINS” (BIOGEN MA INC, priority 2021, published 2025)

The molecules below were run against T1, IRAK4 (Homo sapiens, UniProt Q9NWZ3) (assay: IRAK4 degradation assay using the HiBiT Method). Conditions: 293T cells expressing HiBiT-tagged IRAK4; 6-hour incubation; Nano-Glo HiBiT Lytic Assay luminescence.
T1 construct: knocking-in a HiBiT fusion tag into the C-terminal of the IRAK4 gene in 293T cells; host or cells: 293T cells, knock-in of HiBiT at the endogenous IRAK4 locus
T1 sequence (Q9NWZ3 1-460): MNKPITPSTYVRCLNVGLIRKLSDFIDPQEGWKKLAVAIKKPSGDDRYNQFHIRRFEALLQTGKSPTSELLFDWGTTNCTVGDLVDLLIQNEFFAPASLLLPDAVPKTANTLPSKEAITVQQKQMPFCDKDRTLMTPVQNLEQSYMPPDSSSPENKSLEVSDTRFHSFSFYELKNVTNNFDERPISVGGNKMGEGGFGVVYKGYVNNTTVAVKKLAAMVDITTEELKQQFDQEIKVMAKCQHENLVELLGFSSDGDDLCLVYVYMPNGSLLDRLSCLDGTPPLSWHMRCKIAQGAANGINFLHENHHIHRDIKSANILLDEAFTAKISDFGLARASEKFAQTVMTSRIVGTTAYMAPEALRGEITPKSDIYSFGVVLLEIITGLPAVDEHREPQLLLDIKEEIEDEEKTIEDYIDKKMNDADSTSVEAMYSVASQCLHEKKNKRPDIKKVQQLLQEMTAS
Type: cell-based
Experimental: Selected compounds were tested in an IRAK4 degradation assay using the HiBiT Method.
Phenol red-free Dulbecco's modified Eagle medium (DMEM) and fetal bovine serum (FBS) were purchased from Gibco (Grand Island, NY, USA). The Nano-Glo© HiBiT Lytic Assay System was purchased from Promega (Madison, WI, USA). Cell culture flasks and 384-well microplates were acquired from VWR (Radnor, PA, USA). The 293T cell line was engineered by knocking-in a HiBiT fusion tag into the C-terminal of the IRAK4 gene in 293T cells (Synthego, Redwood City, CA, USA).
IRAK4 degradation was measured via the quantification of luminescent signals using the Nano-Glo© HiBiT Lytic Assay kit. Test compounds were added to 384-well plates in duplicate using an 11-point half-log dilution series, with the highest dose set at 10 mM. 293T cells expressing HiBiT-tagged IRAK4 were then added into 384-well plates at a cell density of 10,000 cells per well. The plates were kept at 37° C. with 5% CO2 for 6 hours. Cells that were treated only with DMSO served as the negative control; wells that contained only assay media served as the background control. After the 6-hour incubation, Nano-Glo® HiBiT Lytic Assay reagents were added to the cells. Luminescence was acquired using an EnVision® Multilabel Reader (PerkinElmer, Santa Clara, CA, USA).
A DC50 of 10 to 100 nM was found for `CC(C)Oc1cc2nc([C@H]3CC[C@H](CN4CCC(c5cccc6c5n(C)c(=O)n6C5CCC(=O)NC5=O)CC4)CC3)cn2cc1NC(=O)c1cccc(C(F)(F)F)n1` (stereo partly shown) [Example 37, N-[2-[4-[[4-[1-(2,6-dioxo-3-piperidyl)-3-methyl-2-oxo-benzimidazol-4-yl]-1-piperidyl]methyl]cyclohexyl]-7-isopropoxy-imidazo[1,2-a]pyridin-6-yl]-6-(trifluoromethyl)pyridine-2-carboxamide] in this work. A DC50 of 100 to 500 nM was found for `CC(C)Oc1cc2nc([C@H]3CC[C@H](CN4CCC(c5cccc(NC6CCC(=O)NC6=O)c5F)CC4)CC3)cn2cc1NC(=O)c1cccc(C(F)(F)F)n1` (stereo partly shown) [Example 38, N-[2-[4-[[4-[3-[(2,6-dioxo-3-piperidyl)amino]-2-fluoro-phenyl]-1-piperidyl]methyl]cyclohexyl]-7-isopropoxy-imidazo[1,2-a]pyridin-6-yl]-6-(trifluoromethyl)pyridine-2-carboxamide] in this work. A DC50 of 100 to 500 nM was found for `CC(C)Oc1cc2nc([C@H]3CC[C@H](CN4CCC(c5cccc(NC6CCC(=O)NC6=O)c5)CC4)CC3)cn2cc1NC(=O)c1cccc(C(F)(F)F)n1` (stereo partly shown) [Example 39, N-[2-[4-[[4-[3-[(2,6-dioxo-3-piperidyl)amino]phenyl]-1-piperidyl]methyl]cyclohexyl]-7-isopropoxy-imidazo[1,2-a]pyridin-6-yl]-6-(trifluoromethyl)pyridine-2-carboxamide] in this work. A DC50 of 100 to 500 nM was found for `CC(C)Oc1cc2nc([C@H]3CC[C@H](CN(C)C4CCN(c5ccc(C6CCC(=O)NC6=O)cc5)CC4)CC3)cn2cc1NC(=O)c1cccc(C(F)(F)F)n1` (stereo partly shown) [Example 40, N-[2-[4-[[[1-[4-(2,6-dioxo-3-piperidyl)phenyl]-4-piperidyl]-methyl-amino]methyl]cyclohexyl]-7-isopropoxy-imidazo[1,2-a]pyridin-6-yl]-6-(trifluoromethyl)pyridine-2-carboxamide] in this work. A DC50 of 100 to 500 nM was found for `CC(C)Oc1cc2nc([C@H]3CC[C@H](CN4CCC(c5ccc(C6CCC(=O)NC6=O)cc5F)CC4)CC3)cn2cc1NC(=O)c1cccc(C(F)(F)F)n1` (stereo partly shown) [Example 41, N-[2-[4-[[4-[4-(2,6-dioxo-3-piperidyl)-2-fluoro-phenyl]-1-piperidyl]methyl]cyclohexyl]-7-isopropoxy-imidazo[1,2-a]pyridin-6-yl]-6-(trifluoromethyl)pyridine-2-carboxamide] in this work. A DC50 of 100 to 500 nM was found for `CC(C)Oc1cc2nc([C@H]3CC[C@H](CN(C)C4CCN(c5cccc6c5n(C)c(=O)n6C5CCC(=O)NC5=O)CC4)CC3)cn2cc1NC(=O)c1cccc(C(F)(F)F)n1` (stereo partly shown) [Example 42, N-[2-[4-[[[1-[1-(2,6-dioxo-3-piperidyl)-3-methyl-2-oxo-benzimidazol-4-yl]-4-piperidyl]-methyl-amino]methyl]cyclohexyl]-7-isopropoxy-imidazo[1,2-a]pyridin-6-yl]-6-(trifluoromethyl)pyridine-2-carboxamide] in this work. A DC50 of 100 to 500 nM was found for `CC(C)Oc1cc2nc([C@H]3CC[C@H](CN(C)C4CCN(c5cccc(C6CCC(=O)NC6=O)c5)CC4)CC3)cn2cc1NC(=O)c1cccc(C(F)(F)F)n1` (stereo partly shown) [Example 43, N-[2-[4-[[[1-[3-(2,6-dioxo-3-piperidyl)phenyl]-4-piperidyl]-methyl-amino]methyl]cyclohexyl]-7-isopropoxy-imidazo[1,2-a]pyridin-6-yl]-6-(trifluoromethyl)pyridine-2-carboxamide] in this work. A DC50 of 100 to 500 nM was found for `CC(C)Oc1cc2nc([C@H]3CC[C@H](CN(C)C4CCN(c5cccc(NC6CCC(=O)NC6=O)c5)CC4)CC3)cn2cc1NC(=O)c1cccc(C(F)(F)F)n1` (stereo partly shown) [Example 44, N-[2-[4-[[[1-[3-[(2,6-dioxo-3-piperidyl)amino]phenyl]-4-piperidyl]-methyl-amino]methyl]cyclohexyl]-7-isopropoxy-imidazo[1,2-a]pyridin-6-yl]-6-(trifluoromethyl) pyridine-2-carboxamide] in this work. A DC50 of 500 to 1000 nM was found for `CC(C)Oc1cc2nc([C@H]3CC[C@H](CN(C)C4CCN(c5ccc6c(c5)n(C)c(=O)n6C5CCC(=O)NC5=O)CC4)CC3)cn2cc1NC(=O)c1cccc(C(F)(F)F)n1` (stereo partly shown) [Example 45, N-[2-[4-[[[1-[1-(2,6-dioxo-3-piperidyl)-3-methyl-2-oxo-benzimidazol-5-yl]-4-piperidyl]-methyl-amino]methyl]cyclohexyl]-7-isopropoxy-imidazo[1,2-a]pyridin-6-yl]-6-(trifluoromethyl)pyridine-2-carboxamide] in this work. In the case of `CC(C)Oc1cc2nc([C@H]3CC[C@H](CN(C)C4CCN(Cc5cccc(NC6CCC(=O)NC6=O)c5)CC4)CC3)cn2cc1NC(=O)c1cccc(C(F)(F)F)n1` (stereo partly shown) [Example 46, N-[2-[4-[[[1-[[3-[(2,6-dioxo-3-piperidyl)amino]phenyl]methyl]-4-piperidyl]-methyl-amino]methyl]cyclohexyl]-7-isopropoxy-imidazo[1,2-a]pyridin-6-yl]-6-(trifluoromethyl) pyridine-2-carboxamide], the DC50 is reported as > 1000 nM. A DC50 of 100 to 500 nM was found for `CC(C)Oc1cc2nc(C3CCC(CN4CCC(c5ccc6c(c5)n(C)c(=O)n6C5CCC(=O)NC5=O)CC4)CC3)cn2cc1NC(=O)c1cccc(C(F)(F)F)n1` (stereo not shown) [Example 47, N-[2-[4-[[4-[1-(2,6-dioxo-3-piperidyl)-3-methyl-2-oxo-benzimidazol-5-yl]-1-piperidyl]methyl]cyclohexyl]-7-isopropoxy-imidazo[1,2-a]pyridin-6-yl]-6-(trifluoromethyl)pyridine-2-carboxamide] in this work. A DC50 of 10 to 100 nM was found for `CC(C)Oc1cc2nn(C3CCN(CC(=O)N4CCC(c5ccc(NC6CCC(=O)NC6=O)cc5)CC4)CC3)cc2cc1NC(=O)c1cccc(C(F)(F)F)n1` (stereo not shown) [Example 49, N-(2-(1-(2-(4-(4-((2,6-dioxopiperidin-3-yl)amino)phenyl)piperidin-1-yl)-2-oxoethyl)piperidin-4-yl)-6-isopropoxy-2H-indazol-5-yl)-6-(trifluoromethyl) picolinamide] in this work. A DC50 of 10 to 100 nM was found for `CC(C)Oc1cc2nn(C3CCN(CC(=O)N4CCC(c5ccc(NC6CCC(=O)NC6=O)cc5F)CC4)CC3)cc2cc1NC(=O)c1cccc(C(F)(F)F)n1` (stereo not shown) [Example 50, N-[2-[1-[2-[4-[4-[(2,6-dioxo-3-piperidyl)amino]-2-fluoro-phenyl]-1-piperidyl]-2-oxo-ethyl]-4-piperidyl]-6-isopropoxy-indazol-5-yl]-6-(trifluoromethyl)pyridine-2-carboxamide] in this work. A DC50 of 10 to 100 nM was found for `CC(C)Oc1cc2nn(C3CCN(C(=O)CN4CCC(c5ccc(NC6CCC(=O)NC6=O)cc5)CC4)CC3)cc2cc1NC(=O)c1cccc(C(F)(F)F)n1` (stereo not shown) [Example 51, N-[2-[1-[2-[4-[4-[(2,6-dioxo-3-piperidyl)amino]phenyl]-1-piperidyl]acetyl]-4-piperidyl]-6-isopropoxy-indazol-5-yl]-6-(trifluoromethyl)pyridine-2-carboxamide] in this work. A DC50 of 10 to 100 nM was found for `CC(C)Oc1cc2nn(C3CCN(C(=O)CN4CCC(c5ccc(NC6CCC(=O)NC6=O)cc5F)CC4)CC3)cc2cc1NC(=O)c1cccc(C(F)(F)F)n1` (stereo not shown) [Example 52, N-(2-(1-(2-(4-(4-((2,6-dioxopiperidin-3-yl)amino)-2-fluorophenyl)piperidin-1-yl)acetyl)piperidin-4-yl)-6-isopropoxy-2H-indazol-5-yl)-6-(trifluoromethyl)picolinamide] in this work. A DC50 of 100 to 500 nM was found for `CC(C)Oc1cc2nc(C3CCN(CC(=O)N4CCC(c5ccc(NC6CCC(=O)NC6=O)cc5)CC4)CC3)cn2cc1NC(=O)c1ccncn1` (stereo not shown) [Example 53, N-[2-[1-[2-[4-[4-[(2,6-dioxo-3-piperidyl)amino]phenyl]-1-piperidyl]-2-oxo-ethyl]-4-piperidyl]-7-isopropoxy-imidazo[1,2-a]pyridin-6-yl]pyrimidine-4-carboxamide] in this work.
